The values that follow come from paper PMC9600708 (Molecular cancer therapeutics, 2022).

“Also recorded” adds a separate entry of the source. A value given as a limit tells only on which side of the number the result lay.

One data set concerns CAL-120 cell line. Briefly: SRB proliferation assay. The class given is cell-based, human. To be noted: read-out: IC50 proliferation; CAL-120, SRB, 72 hours.
The subject of another data set is MDA-MB-231 cell line. In words: SRB proliferation assay. The class given is cell-based, human. The conditions noted are these: read-out: IC50 proliferation; MDA-MB-231, SRB, 72 hours. A general note: In SRB staining, fixed cells bind dye roughly in proportion to their protein.
In a further data set the test system is HCC1395 cell line. In words: SRB proliferation assay. The class given is cell-based, human. To be noted: read-out: IC50 proliferation, 72 hours.
The test system of a further data set is Hs578T cell line. In words: SRB proliferation assay. The class given is cell-based, human. To be noted: read-out: IC50 proliferation, 72 hours.
Another data set relates to CAL-120 cells. In words: Cell cycle analysis. To be noted: CAL-120, 24 hours, 0-200 nM. It is filed as cell-based, human.
Data set [1] concerns sensitive and resistant TNBC cell lines. In words: Immunoblotting of protein acetylation and p21. The class given is cell-based, human. The conditions noted are these: 24 hours, immunoblot. Background: A western blot detects proteins with antibodies after separation by electrophoresis.
The next data set deals with HCT-116 xenografts. Briefly: HCT-116 xenograft efficacy study. The class given is in vivo. To be noted: for TGI compared to vehicle control: HCT-116 xenograft.
Data set [2] has as its system acetyl-histone H3 and acetyl H3K9. Briefly: HCT-116 xenograft pharmacodynamics. It is filed as in vivo, BALB/c nude mice.
The nature of data set [3]: Plasma and tumor pharmacokinetics of OKI-005 in HCT-116 tumor-bearing mice. It is filed as in vivo, BALB/c nude mice.
Data set [4] has as its system luciferase-labeled MDA-MB-231 cells. In words: MDA-MB-231 luciferase-labeled metastasis model. It is filed as in vivo, BALB/c nude mice. To be noted: OKI-005 10 mg/kg IP 3 times a week for 30 days.
A short description of data set [5]: Plasma persistence of OKI-006 across preclinical models. It is filed as in vivo. To be noted: depending on the dose and model (mouse vs. rat vs. dog).
For a further data set, the system named is HDAC-1. The conditions noted are these: read-out: IC50 HDAC-1; cell-free biochemical assay, previously published; cited from earlier work.
Another data set relates to HDAC-2. The conditions noted are these: read-out: IC50 HDAC-2; cell-free biochemical assay, previously published; cited from earlier work.
In the next data set the test system is HDAC-3. To be noted: read-out: IC50 HDAC-3; cell-free biochemical assay, previously published; cited from earlier work.
For the next data set, the system named is HDAC-8. To be noted: read-out: IC50 HDAC-8; cell-free biochemical assay, previously published; cited from earlier work.
A further data set has as its system HDAC-6. The conditions noted are these: read-out: IC50 HDAC-6; cell-free biochemical assay, previously published; cited from earlier work.
In the next data set the test system is HDAC-4. The conditions noted are these: read-out: IC50 HDAC-4; cell-free biochemical assay, previously published; cited from earlier work.
The next data set has as its system HDAC-5. The conditions noted are these: read-out: IC50 HDAC-5; cell-free biochemical assay, previously published; cited from earlier work.
A further data set deals with HDAC-7. The conditions noted are these: read-out: IC50 HDAC-7; cell-free biochemical assay, previously published; cited from earlier work.
The subject of the next data set is HDAC-9. To be noted: read-out: IC50 HDAC-9; cell-free biochemical assay, previously published; cited from earlier work.
Data set [6] has as its system MDA-MB-231 xenograft. Briefly: MDA-MB-231 xenograft efficacy study. It is filed as in vivo, BALB/c nude mice. To be noted: OKI-179 40-80 mg/kg PO daily, 120 mg PO every other day.
Another data set concerns acetylated histone H3. Briefly: MDA-MB-231 xenograft pharmacodynamics. The class given is in vivo, nude mice. The conditions noted are these: OKI-179 40, 60 or 80 mg/kg PO daily x 3 or 10 days.
The next data set relates to advanced solid tumors. The conditions noted are these: continuous dosing, patients with advanced solid tumors; cited from earlier work.
In data set [7] the test system is MDA-MB-231 xenograft. The conditions noted are these: addition of OKI-179 to nivolumab; cited from earlier work.
A further data set has as its system MCF-7 xenograft. In words: MCF-7 xenograft, OKI-179 in combination with tamoxifen. The conditions noted are these: OKI-179 60 mg/kg PO 5 days on 2 days off, tamoxifen 25 mg/kg SQ 3 times a week.

On to `CCCCCCCC(=O)SCC/C=C/[C@@H]1CC(=O)NCc2nc(cs2)C(=O)NC(C)(C)C(=O)N[C@@H](C(C)C)C(=O)O1` [OKI-005], for which the IC50 in the data set with CAL-120 cell line is under 0.1 µM; in the data set on MDA-MB-231 cell line it was under 0.1 µM; with HCC1395 cell line it was over 0.5 µM; with Hs578T cell line, over 0.5 µM. For the same compound, the “cell cycle effect (G1 and S phase fraction)” value in the data set on CAL-120 cells is “trend towards an increase in G1 and a decrease in the cell fraction in S phase”. The “acetylated histone-H3 and p21” value in data set [1] (0-500 nM) is on record as “concentration-dependent increase”. In data set [1] (highest dose levels), the “acetylated α-tubulin” value was “small increase”. The “TGI compared to vehicle control” value is given as 28.1% in the data set with HCT-116 xenografts (OKI-005 30 mg/kg, P = 0.025) and 75.6% with HCT-116 xenografts (OKI-005 100 mg/kg, P < 0.001). Also, in the data set with HCT-116 xenografts (OKI-005 100 mg/kg PO daily, mice, 100 mg/kg), the “body weight / tolerability” value is on record as “weight loss related to treatment requiring dose reduction; also recorded: dose-limiting treatment-related toxicity”. Besides, the “acetyl-histone H3 and acetyl H3K9 in tumor” value in [2] (1 hour post-dose, HCT-116 xenograft) is recorded as “dose-dependent increase”. For the same compound, the “time of highest acetyl-Histone H3 and acetyl H3K9 levels post-treatment” value in data set [2] (OKI-005 100 mg/kg) worked out at 4 h. In addition, the “time of return of acetyl-Histone H3 and acetyl H3K9 to baseline post-dose” value in [2] (OKI-005 100 mg/kg) worked out at 24 h. For the same compound, the half-life in plasma in data set [3] (PO dosing of OKI-005, metabolite OKI-006 measured, HCT-116 tumor-bearing mice) was under 2 h. The “primary tumor growth and metastasis (number of thoracic metastasis)” value in data set [4] is given as “statistically significant inhibition”.
With `CC(C)[C@@H]1NC(=O)C(C)(C)NC(=O)c2csc(n2)CNC(=O)C[C@@H](/C=C/CCS)OC1=O` [OKI-006], the “tumor concentrations versus plasma levels” value in [3] (OKI-006 after single dose of OKI-005 PO or IP) is given as “exceeded plasma levels at all time points”. Also, the “persistence of plasma concentrations > 100 nM following a single dose” value in data set [5] was 4 to 12 h. Besides, the IC50 in the data set on HDAC-1 is 0.0012 µM; in the data set on HDAC-2, 0.0024 µM; in the data set on HDAC-3, 0.002 µM; in the data set on HDAC-8, 0.047 µM; with HDAC-6, 0.047 µM; in the data set with HDAC-4 it was over 1 µM. Further, the IC50 in the data set with HDAC-5, in the data set on HDAC-7 and with HDAC-9 was over 1 µM each time.
For `CC(C)[C@H](N)C(=O)SCC/C=C/[C@@H]1CC(=O)NCc2nc(cs2)C(=O)NC(C)(C)C(=O)N[C@@H](C(C)C)C(=O)O1` [OKI-179], the “body weight / tolerability” value in the data set with HCT-116 xenografts (OKI-179 100 mg/kg oral daily, animals) is recorded as “weight loss”. In addition, the “tumor growth at day 24” value in the data set with HCT-116 xenografts (OKI-179 40-80 mg/kg PO daily and 120 mg PO every other day, all doses and schedules) is recorded as “statistically significant decreased tumor growth”. For the same compound, the tumor growth inhibition entry was “statistically significant tumor growth inhibition at higher doses” with MDA-MB-231 xenograft [6] and “active” with MCF-7 xenograft. For the same compound, the “acetylated histone H3 in tumor” value in the data set on acetylated histone H3 is listed as “increase in acetylated histone H3”. Besides, the dose-limiting toxicity entry with advanced solid tumors is “dose-limiting thrombocytopenia”. Also, in the data set on MDA-MB-231 xenograft [7], the “tumor growth inhibition and T-cell activation” value was “improved tumor growth inhibition and increased T-cell activation”.
As for `CC/C(=C(\c1ccccc1)c1ccc(OCCN(C)C)cc1)c1ccccc1` [tamoxifen, reference compound], the tumor growth inhibition entry in the data set on MCF-7 xenograft is on record as “active”.
